Data on 17 molecules can be found in patent US11413261B2, “Pharmaceutical composition for treating cancer comprising lactate metal salt” (METIMEDI PHARMACEUTICALS CO., LTD, priority 2014, dated 2022).

Test [1] has as its system human liver cancer cell line (Hep3B). Kind of test: Colony-forming ability, anticancer drug in combination with calcium lactate (6-well plates). It is filed as cell-based. To be noted: 1, 2.5, 5 μM Sorafenib alone, vs control. Here is the method:
Human liver cancer cell line (Hep3B) with the cell number of 1×10^3 cells were seeded into an RPMI1640 medium in each of 6-well plates. After one day, the medium was replaced with fresh medium and the cells were treated with 2.5 mM calcium lactate or 1 μM, 2.5 μM, and 5 μM Sorafenib alone or treated with various concentrations (1 μM, 2.5 μM, and 5 μM) of Sorafenib in combination with 2.5 mM calcium lactate. Then, the colony-forming abilities of the cells were compared. In this case, a human liver cancer cell line (Hep3B) untreated with any drug was used as a control group (FIGS. 45a and 45b).

The test system of test [2] is human vascular endothelial cell (HUVEC). Briefly: Tube formation of HUVEC in culture supernatants of treated cancer cell lines. The class given is cell-based. To be noted: HUVEC treated with Sulforaphane (comparison group). The source says:
A human vascular endothelial cell (HUVEC) was inoculated into each of the obtained culture supernatant and cultured to analyze a conformational change of cells (FIG. 17). In this case, an HUVEC cultured using the culture medium of a cancer cell line cultured without treating with calcium lactate was used as a control group, and an HUVEC cultured with the treatment with Sulforaphane, which is a growth inhibitor of an HUVEC, was used as a comparison group.

Test [3] has as its system human colorectal cancer cell lines (HT-29 and HCT-116). Briefly: Colony-forming ability, anticancer drug in combination with calcium lactate (6-well plates). It is filed as cell-based. To be noted: vs control. Here is the method: Human colorectal cancer cell lines (HT-29 and HCT-116) with the cell number of 1×10^3 cells were seeded into an RPMI1640 medium in each of 6-well plates. After one day, the medium was replaced with fresh medium and the cells were treated with 2.5 mM calcium lactate or 1 μM, 2.5 μM, and 5 μM Imatinib alone or treated with various concentrations (1 μM, 2.5 μM, and 5 μM) of Imatinib in combination with 2.5 mM calcium lactate. Then, the colony-forming abilities of the cells were compared. In this case, human colorectal cancer cell lines (HT-29 and HCT-116) untreated with any drug were used as control groups (FIGS. 38a, 38b, 39a and 39b).
Human colorectal cancer cell lines (HT-29 and HCT-116) with the cell number of 1×10^3 cells were seeded into an RPMI1640 medium in each of 6-well plates. After one day, the medium was replaced with fresh medium and the cells were treated with 2.5 mM calcium lactate or 2.5 μM, 5 μM, and 10 μM 5-FU alone or treated with various concentrations (2.5 μM, 5 μM, and 10 μM) of 5-FU in combination with 2.5 mM calcium lactate. Then, the colony-forming abilities of the cells were compared. In this case, human colorectal cancer cell lines (HT-29 and HCT-116) untreated with any drug were used as control groups (FIGS. 40a, 40 b, 41a and 41b).

In test [4] the test system is human breast cancer cell line (MCF-7). The test is described as above. It is filed as cell-based. The conditions noted are these: vs control. Here is the method:
Human breast cancer cell line (MCF-7) and a human lung cancer cell line (A549) with the cell number of 1×10^3 cells were seeded into an RPMI1640 medium in each of 6-well plates. […] Then, the colony-forming abilities of the cells were compared. In this case, a human breast cancer cell line (MCF-7) and a human lung cancer cell line (A549) untreated with any drug were used as control groups (FIGS. 42a, 42b, 43a and 43b).
Human breast cancer cell line (MCF-7) with the cell number of 1×10^3 cells were seeded into an RPMI1640 medium in each of 6-well plates. After one day, the medium was replaced with fresh medium and the cells were treated with 2.5 mM calcium lactate or 2 μM, 4 μM, and 8 μM Lapatinib alone or treated with various concentrations (2 μM, 4 μM, and 8 μM) of Lapatinib in combination with 2.5 mM calcium lactate. Then, the colony-forming abilities of the cells were compared. In this case, a human breast cancer cell line (MCF-7) untreated with any drug was used as a control group (FIGS. 52a and 52b).

Test [5] concerns human lung cancer cell line (A549). The description is as above. It is filed as cell-based. To be noted: vs control. How it is done:
Human breast cancer cell line (MCF-7) and a human lung cancer cell line (A549) with the cell number of 1×10^3 cells were seeded into an RPMI1640 medium in each of 6-well plates. […]. Then, the colony-forming abilities of the cells were compared. In this case, a human breast cancer cell line (MCF-7) and a human lung cancer cell line (A549) untreated with any drug were used as control groups (FIGS. 42a, 42b, 43a and 43b).
Human lung cancer cell line (A549) with the cell number of 1×10^3 cells were seeded into an RPMI1640 medium in each of 6-well plates. […]. Then, the colony-forming abilities of the cells were compared. In this case, a human lung cancer cell line (A549) untreated with any drug was used as a control group (FIGS. 44a and 44b).
Human lung cancer cell line (A549) with the cell number of 1×10^3 cells were seeded into an RPMI1640 medium in each of 6-well plates. […]. Then, the colony-forming abilities of the cells were compared. In this case, a human lung cancer cell line (A549) untreated with any drug was used as a control group (FIGS. 47a and 47b).
Human lung cancer cell line (A549) with the cell number of 1×10^3 cells were seeded into an RPMI1640 medium in each of 6-well plates. […]. Then, the colony-forming abilities of the cells were compared. In this case, a human lung cancer cell line (A549) untreated with any drug was used as a control group (FIGS. 49a and 49b).
Human lung cancer cell line (A549) with the cell number of 1×10^3 cells were seeded into an RPMI1640 medium in each of 6-well plates. […]. Then, the colony-forming abilities of the cells were compared. In this case, a human lung cancer cell line (A549) untreated with any drug was used as a control group (FIGS. 50a and 50b).
Human lung cancer cell line (A549) with the cell number of 1×10^3 cells were seeded into an RPMI1640 medium in each of 6-well plates. […]. Then, the colony-forming abilities of the cells were compared. In this case, a human lung cancer cell line (A549) untreated with any drug was used as a control group (FIGS. 51a and 51b).

For test [6], the system named is human colorectal cancer cell line (HT-29). The description is as above. The conditions noted are these: vs control. It is filed as cell-based. Here is the method: Human colorectal cancer cell line (HT-29) with the cell number of 1×10^3 cells were seeded into an RPMI1640 medium in each of 6-well plates. […]. Then, the colony-forming abilities of the cells were compared. In this case, a human colorectal cancer cell line (HT-29) untreated with any drug was used as a control group (FIGS. 46a and 46b).
Human colorectal cancer cell line (HT-29) with the cell number of 1×10^3 cells were seeded into an RPMI1640 medium in each of 6-well plates. […]. Then, the colony-forming abilities of the cells were compared. In this case, a human colorectal cancer cell line (HT-29) untreated with any drug was used as a control group (FIGS. 48a and 48b).
Human colorectal cancer cell line (HT-29) with the cell number of 1×10^3 cells were seeded into an RPMI1640 medium in each of 6-well plates. […]. Then, the colony-forming abilities of the cells were compared. In this case, a human colorectal cancer cell line (HT-29) untreated with any drug was used as a control group (FIG. 55).

A further test has as its system cancer cell. Briefly: Dissociation of metal lactate salts to lactate in a cancer cell. It is filed as cell-based.
The test system of test [7] is human kidney cancer cell line (Caki-1). Kind of test: Colony-forming ability, anticancer drug in combination with calcium lactate (6-well plates). It is filed as cell-based. The conditions noted are these: 0.3, 0.5, 1 nM Everolimus alone, vs control. Here is the method:
Human kidney cancer cell line (Caki-1) with the cell number of 1×10^3 cells were seeded into an RPMI1640 medium in each of 6-well plates. After one day, the medium was replaced with fresh medium and the cells were treated with 0.3 nM, 0.5 nM, and 1 nM Everolimus alone or treated with various concentrations (0.3 nM, 0.5 nM, and 1 nM) of Everolimus in combination with 2.5 mM calcium lactate. Then, the colony-forming abilities of the cells were compared. In this case, a human kidney cancer cell line (Caki-1) untreated with any drug was used as a control group (FIGS. 53a and 53b).

The subject of test [8] is human colorectal cancer cell line HCT-116. The conditions noted are these: 5 mM CA individually, 10 days.
The mark [9] stands for this setting: 0.63, 1.3, 2.5 nM Paclitaxel alone.

Structures are written as SMILES.

Regarding `CNC(=O)c1cc(Oc2ccc(NC(=O)Nc3ccc(Cl)c(C(F)(F)F)c3)cc2)ccn1` [Sorafenib, reference compound], the colony-forming ability entry in test [1] is on record as “suppressed”.
As for `C[S+]([O-])CCCCN=C=S` (stereo not drawn) [Sulforaphane, reference compound], the “tube-forming ability of HUVEC” value in [2] is recorded as “reduced tube-forming ability”.
`O=c1[nH]cc(F)c(=O)[nH]1` [5-FU]: in [3] (2.5, 5, 10 μM 5-FU alone), the colony-forming ability result was “suppressed”.
`CC(=O)O[C@H]1C(=O)[C@@]2(C)[C@H]([C@H](OC(=O)c3ccccc3)[C@]3(O)C[C@H](OC(=O)[C@H](O)[C@@H](NC(=O)c4ccccc4)c4ccccc4)C(C)=C1C3(C)C)[C@]1(OC(C)=O)CO[C@@H]1C[C@@H]2O` [Paclitaxel]: the colony-forming ability result in test [4] (setting [9]) and in [5] (setting [9]) was “suppressed” throughout.
For `C#Cc1cccc(Nc2ncnc3cc(OCCOC)c(OCCOC)cc23)c1` [Erlotinib], in test [5] (0.5, 1, 2 μM Erlotinib alone), the colony-forming ability result is given as “suppressed”.
As to `COc1cc2ncnc(Nc3ccc(F)c(Cl)c3)c2cc1OCCCN1CCOCC1` [Gefitinib], in [5] (1.3, 2.5, 5 μM Gefitinib alone), the colony-forming ability result was “suppressed”.
Take `N.N.O=C([O-])C1(C(=O)[O-])CCC1.[Pt+2]` [Carboplatin]: the colony-forming ability entry in test [5] (2.5, 5, 10 μM Carboplatin alone) was “suppressed”.
As to `CC(=O)O[C@@]12CO[C@@H]1C[C@H](O)[C@@]1(C)C(=O)[C@H](O)C3=C(C)[C@@H](OC(=O)[C@H](O)[C@@H](NC(=O)OC(C)(C)C)c4ccccc4)C[C@@](O)([C@@H](OC(=O)c4ccccc4)[C@H]21)C3(C)C` [Docetaxel], the colony-forming ability result in test [5] (0.6, 1.3, 2.5 nM Docetaxel alone) is “suppressed”.
Regarding `O=C1[O][Pt]2([NH][C@@H]3CCCC[C@H]3[NH]2)[O]C1=O` [Oxaliplatin], the colony-forming ability entry in [6] (1.3, 2.5, 5 μM Oxaliplatin alone) is recorded as “suppressed”.
As for `CS(=O)(=O)CCNCc1ccc(-c2ccc3ncnc(Nc4ccc(OCc5cccc(F)c5)c(Cl)c4)c3c2)o1` [Lapatinib], in [4] (2, 4, 8 μM Lapatinib alone), the colony-forming ability result is “suppressed”.
Consider `CCc1c2c(nc3ccc(OC(=O)N4CCC(N5CCCCC5)CC4)cc13)-c1cc3c(c(=O)n1C2)COC(=O)[C@]3(O)CC` [Irinotecan], for which the colony-forming ability entry in [6] (0.5, 1, 2 μM Irinotecan alone) is “suppressed”.
In the case of `CC(O)C(=O)[O-].[Na+]` (stereo not drawn) [sodium lactate], the “dissociation to lactate in a cancer cell” value in the test on cancer cell was “can be dissociated to lactate”.
`CN(Cc1cnc2nc(N)nc(N)c2n1)c1ccc(C(=O)N[C@@H](CCC(=O)O)C(=O)O)cc1` [Methotrexate]: the colony-forming ability result in [5] (5, 10, 20 nM Methotrexate alone) is given as “suppressed”.
Regarding `CO[C@H]1C[C@@H]2CC[C@@H](C)[C@@](O)(O2)C(=O)C(=O)N2CCCC[C@H]2C(=O)O[C@H]([C@H](C)C[C@@H]2CC[C@@H](OCCO)[C@H](OC)C2)CC(=O)[C@H](C)/C=C(\C)[C@@H](O)[C@@H](OC)C(=O)[C@H](C)C[C@H](C)/C=C/C=C/C=C/1C` [Everolimus, reference compound], the colony-forming ability entry in test [7] is “suppressed”.
As to `O=C(O)C=Cc1ccccc1` [CA, cinnamic acid, reference compound], in test [8], the survival rate result is recorded as “about 60%”.
In the case of `Cc1ccc(NC(=O)c2ccc(CN3CCN(C)CC3)cc2)cc1Nc1nccc(-c2cccnc2)n1` [Imatinib], the colony-forming ability result in test [3] (1, 2.5, 5 μM Imatinib alone) is listed as “suppressed”.
Consider `CC(O)C(=O)[O-].[K+]` (stereo not drawn) [potassium lactate], for which, in the test on cancer cell, the “dissociation to lactate in a cancer cell” value is “can be dissociated to lactate”.
